What all share (type): biochemical
For one experiment, the target named is rat 11-β-HSD-1 (Rattus norvegicus (Rat), UniProt P16232). As to the kind of experiment: Inhibition of 11-β-HSD-1 enzyme assay (HTRF cortisol), rat liver microsome fractions. As to conditions: cortisone/NADPH 200 nM/200 μM, 150 minutes at 37° C. The protocol: (§1) Human recombinant 11-beta-hydroxysteroid dehydrogenase type 1 (11-β-HSD-1) enzyme was expressed in E. coli. Rat and mice liver microsome fractions were purchased from TEBU.
rat 11-β-HSD-1, sequence (P16232 whole entry): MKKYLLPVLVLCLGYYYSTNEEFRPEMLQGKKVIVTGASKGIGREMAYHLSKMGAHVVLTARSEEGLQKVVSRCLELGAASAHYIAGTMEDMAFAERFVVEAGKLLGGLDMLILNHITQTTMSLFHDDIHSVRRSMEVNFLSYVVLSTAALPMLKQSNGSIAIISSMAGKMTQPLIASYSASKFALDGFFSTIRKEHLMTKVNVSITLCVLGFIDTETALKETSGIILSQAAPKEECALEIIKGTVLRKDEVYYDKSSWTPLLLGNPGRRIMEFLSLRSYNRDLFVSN
(§2) The 11-β-HSD-1 enzyme assay was carried out in 96 well microtiter plates in a total volume of 100 μl containing 30 mM Hepes buffer, pH 7.4 with 1 mM EDTA, substrate mixture cortisone/NADPH (200 nM/200 μM), G-6-P (1 mM) and inhibitors in serial dilutions. Reactions were initiated by addition of 10 μl 11-β-HSD-1 (3 μg) from E. coli, either as microsome fractions from rat and mice liver (2.5 μg). Following mixing, the plates were shaken for 150 minutes at 37° C. The reactions were terminated with 10 μl Acid-18beta glycyrrhetinic stop solution. Determinations of cortisol levels in 11-β-HSD-1 preparations were monitored by HTRF (HTRF cortisol assay from Cis bio international).
(In TR-FRET formats the signal depends on donor and acceptor labels being close together.)

The next experiment addresses human 11-β-HSD-1 (Homo sapiens (Human), UniProt P28845). As to the kind of experiment: Inhibition of 11-β-HSD-1 enzyme assay (HTRF cortisol), human recombinant enzyme. As to conditions: human recombinant enzyme expressed in E. coli; cortisone/NADPH 200 nM/200 μM; 150 minutes at 37° C. The protocol:
as §1, §2

The next experiment addresses mouse 11-β-HSD-1 (Mus musculus (Mouse), UniProt P50172). Kind of experiment: Inhibition of 11-β-HSD-1 enzyme assay (HTRF cortisol), mice liver microsome fractions. As to conditions: cortisone/NADPH 200 nM/200 μM, 150 minutes at 37° C. The protocol: as §1, §2

mouse 11-β-HSD-1, sequence (P50172 whole entry): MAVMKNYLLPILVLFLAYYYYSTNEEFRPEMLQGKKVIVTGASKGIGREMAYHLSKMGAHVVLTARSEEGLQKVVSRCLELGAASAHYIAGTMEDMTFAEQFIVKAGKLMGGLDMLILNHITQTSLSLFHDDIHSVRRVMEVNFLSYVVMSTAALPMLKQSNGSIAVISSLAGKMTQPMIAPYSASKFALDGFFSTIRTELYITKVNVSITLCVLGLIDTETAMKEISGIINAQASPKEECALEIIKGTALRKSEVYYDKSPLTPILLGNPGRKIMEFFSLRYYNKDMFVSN
human 11-β-HSD-1, sequence (P28845 whole entry): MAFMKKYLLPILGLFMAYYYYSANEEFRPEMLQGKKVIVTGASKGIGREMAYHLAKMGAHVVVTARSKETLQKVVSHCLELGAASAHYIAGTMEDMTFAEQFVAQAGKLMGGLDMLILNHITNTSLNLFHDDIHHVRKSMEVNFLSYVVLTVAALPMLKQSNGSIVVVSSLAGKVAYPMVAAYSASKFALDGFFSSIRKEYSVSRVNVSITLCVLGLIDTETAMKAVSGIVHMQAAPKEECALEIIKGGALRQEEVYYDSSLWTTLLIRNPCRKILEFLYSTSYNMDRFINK

In the case of `O=C(N1CCC2(c3c[nH]c4ncccc34)CC12)C1(c2ccc(Cl)cc2)CC1` (stereo not drawn) [Compound 2, 3-(2-{[1-(4-chlorophenyl)cyclopropyl]carbonyl}-2-azabicyclo[3.1.0]hex-5-yl)-1H-pyrrolo[2,3-b]pyridine], the IC50 against rat 11-β-HSD-1 was found to be 1290 nM; at human 11-β-HSD-1, 22 nM; on mouse 11-β-HSD-1, 1540 nM.

By IC50 is commonly meant the concentration needed to halve the response being measured.

For the origin of these results see patent publication US8486964B2, “Fused pyrrolidino-cyclopropane derivatives as selective 11-beta-hydroxysteroid dehydrogenase type 1 inhibitors” (Merck Patent GmbH, priority 2009, dated 2013).
